This assay relates to P388 leukemia ip, CD2F1 mice, survival T/C. Briefly: NCI In Vivo Anticancer Drug Screen. Data for tumor model P388 Leukemia (intraperitoneal) in CD2F1 (CDF1) mice. Conditions: endpoint: median survival time, higher = longer survival. The essentials: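 Mice carrying the transplanted tumor received test compound or vehicle. Survival was recorded in each group, and the value is the treated-group measurement divided by that of the vehicle-treated control group.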

[1] abbreviates: dose: 12.5 mg/kg/injection, schedule: Q01DX009 (ip), vehicle: saline with Tween-80.
The mark [2] stands for this setting: dose: 25.0 mg/kg/injection, schedule: Q01DX009 (ip), vehicle: saline with Tween-80.
The mark [3] stands for this setting: dose: 50.0 mg/kg/injection, schedule: Q01DX009 (ip), vehicle: saline with Tween-80.
The mark [4] stands for this setting: dose: 50.0 mg/kg/injection, schedule: Q01DX009 (ip), vehicle: saline.
The mark [5] stands for this setting: dose: 100.0 mg/kg/injection, schedule: Q01DX009 (ip), vehicle: saline.
Where [6] appears, read: dose: 50.0 mg/kg/injection, schedule: Q01DX009 (ip), vehicle: Klucel (hydroxypropylcellulose) (HPC).
Where [7] appears, read: dose: 200.0 mg/kg/injection, schedule: Q01DX009 (ip), vehicle: Klucel (hydroxypropylcellulose) (HPC).

Values joined by “and” are separate entries in the source; they are usually repeats but may differ in a detail not shown here. Identical values can stand only once. Toxic doses and inconclusive results are not listed.

Consider `COCC1(COC)CCN(C2CC(O[C@H]3C[C@](O)(C(C)=O)Cc4c(O)c5c(c(O)c43)C(=O)c3c(OC)cccc3C5=O)OC(C)C2O)CC1` (some centres not stated), for which the T/C by setting is: (dose: 1.56 mg/kg/injection, schedule: Q04DX003 (ip), vehicle: water) 103 % of control; (dose: 3.12 mg/kg/injection, schedule: Q04DX003 (ip), vehicle: water) 110 % of control and 113 % of control; (dose: 12.5 mg/kg/injection, schedule: Q04DX003 (ip), vehicle: water) 183 % of control and 212 % of control; (dose: 25.0 mg/kg/injection, schedule: Q04DX003 (ip), vehicle: water) 152 % of control.

As to `COc1cc2c(cc1OC)C1C(CC(=O)O)CCCN1CC2` (configuration not stated), the T/C runs as follows: (dose: 50.0 mg/kg/injection, schedule: Q01DX005 (ip), vehicle: Klucel (hydroxypropylcellulose) (HPC)) 112 % of control; (dose: 100.0 mg/kg/injection, schedule: Q01DX005 (ip), vehicle: Klucel (hydroxypropylcellulose) (HPC)) 100 % of control; (dose: 200.0 mg/kg/injection, schedule: Q01DX005 (ip), vehicle: Klucel (hydroxypropylcellulose) (HPC)) 100 % of control.

Regarding `CC(C)S(=O)(=O)/C(Cl)=C(/Cl)C(Cl)=C(Cl)Cl`, the T/C reads like this: under setting [1], 100 % of control; under setting [2], 109 % of control; under setting [3], 95 % of control.

Turning to `CC(=O)OC1=C(C)[C@@H]2CC(=O)O[C@@H]3C[C@H]4[C@H](C)C[C@H](O)[C@H](O)[C@]4(C)[C@@H](C1=O)[C@@]32C`, the T/C reads like this: (dose: 0.5 mg/kg/injection, schedule: Q01DX005 (ip), vehicle: saline + alcohol) 101 % of control; (dose: 1.0 mg/kg/injection, schedule: Q01DX005 (ip), vehicle: saline + alcohol) 103 % of control; (dose: 2.0 mg/kg/injection, schedule: Q01DX005 (ip), vehicle: saline + alcohol) 115 % of control; (dose: 4.0 mg/kg/injection, schedule: Q01DX005 (ip), vehicle: saline + alcohol) 111 % of control; (dose: 8.0 mg/kg/injection, schedule: Q01DX005 (ip), vehicle: saline + alcohol) 115 % of control; (dose: 16.0 mg/kg/injection, schedule: Q01DX005 (ip), vehicle: saline + alcohol) 101 % of control. For the same compound, the T/C (dose: 32.0 mg/kg/injection, schedule: Q01DX005 (ip), vehicle: saline + alcohol) is 94 % of control.

As for `O=CCC(O)C(O)C(O)CO` (configuration not stated), the T/C reads like this: (dose: 150.0 mg/kg/injection, schedule: Q01DX009 (ip), vehicle: saline) 107 % of control; (dose: 300.0 mg/kg/injection, schedule: Q01DX009 (ip), vehicle: saline) 100 % of control and 104 % of control and 121 % of control; (dose: 600.0 mg/kg/injection, schedule: Q01DX009 (ip), vehicle: saline) 107 % of control and 112 % of control and 121 % of control; (dose: 1200.0 mg/kg/injection, schedule: Q01DX009 (ip), vehicle: saline) 103 % of control; (dose: 2400.0 mg/kg/injection, schedule: Q01DX009 (ip), vehicle: saline) 110 % of control and 91 % of control.

`CCN(CC)c1ccc2nc3c4ccccc4c(=NC(=O)c4ccccc4-c4c5ccc(N(CC)CC)cc5[o+]c5cc(N(CC)CC)ccc45)cc-3oc2c1`: the T/C runs as follows: under setting [4], 106 % of control; under setting [5], 96 % of control.

With `COC1(CO)C(=O)N(C)CC(=O)N1C` (configuration not stated), the T/C by setting is: (dose: 60.0 mg/kg/injection, schedule: Q01DX005 (ip), vehicle: saline) 106 % of control; (dose: 120.0 mg/kg/injection, schedule: Q01DX005 (ip), vehicle: saline) 106 % of control.

Regarding `CCCCCCCCSc1nc2ccc(N=Cc3ccccc3O)cc2s1`, the T/C runs as follows: (dose: 12.5 mg/kg/injection, schedule: Q01DX009 (ip), vehicle: Klucel (hydroxypropylcellulose) (HPC)) 109 % of control; (dose: 25.0 mg/kg/injection, schedule: Q01DX009 (ip), vehicle: Klucel (hydroxypropylcellulose) (HPC)) 94 % of control; under setting [6], 90 % of control and 92 % of control; under setting [7], 91 % of control.

In the case of `Cc1ccc([N+](=O)[O-])cc1I`, the T/C runs as follows: under setting [6], 99 % of control; (dose: 100.0 mg/kg/injection, schedule: Q01DX009 (ip), vehicle: Klucel (hydroxypropylcellulose) (HPC)) 99 % of control; under setting [7], 100 % of control.

On to `CCN(CCN1C(=O)C2CCCCC2C1=O)c1ccc(N=O)c(C)c1` (configuration not stated), for which the T/C is, setting by setting: (dose: 100.0 mg/kg/injection, schedule: Q04DX003 (ip), vehicle: saline with Tween-80) 106 % of control; (dose: 200.0 mg/kg/injection, schedule: Q04DX003 (ip), vehicle: saline with Tween-80) 109 % of control; (dose: 400.0 mg/kg/injection, schedule: Q04DX003 (ip), vehicle: saline with Tween-80) 112 % of control.

Take `Cc1csc([NH-])n1.Cc1csc([NH-])n1.[Cl][Pt+2][Cl]`: the T/C is 104 % of control (dose: 100.0 mg/kg/injection, schedule: Q01DX001 (sc), vehicle: olive oil, sesame oil, peanut oil); 107 % of control (dose: 200.0 mg/kg/injection, schedule: Q01DX001 (sc), vehicle: olive oil, sesame oil, peanut oil); 104 % of control (dose: 400.0 mg/kg/injection, schedule: Q01DX001 (sc), vehicle: olive oil, sesame oil, peanut oil).

For `Cc1coc2c1[C@H]1OC(=O)C3=CCC[C@H](C2)[C@@]31C`, the T/C by setting is: (dose: 7.5 mg/kg/injection, schedule: Q01DX009 (ip), vehicle: saline with Tween-80) 100 % of control; (dose: 15.0 mg/kg/injection, schedule: Q01DX009 (ip), vehicle: saline with Tween-80) 100 % of control; (dose: 30.0 mg/kg/injection, schedule: Q01DX009 (ip), vehicle: saline with Tween-80) 101 % of control; (dose: 60.0 mg/kg/injection, schedule: Q01DX009 (ip), vehicle: saline with Tween-80) 98 % of control.

For the compound `CC1=NC(C)(CO)CO1` (configuration not stated), the T/C under setting [4] is 111 % of control; the T/C under setting [5] was 111 % of control; the T/C (dose: 200.0 mg/kg/injection, schedule: Q01DX009 (ip), vehicle: saline) is 108 % of control; the T/C (dose: 400.0 mg/kg/injection, schedule: Q01DX009 (ip), vehicle: saline) is 105 % of control.

In the case of `COC(=O)CCC(=O)C(C#N)c1nc2ccccc2s1` (configuration not stated), the T/C runs as follows: (dose: 50.0 mg/kg/injection, schedule: Q01DX005 (ip), vehicle: saline with Tween-80) 94 % of control; (dose: 100.0 mg/kg/injection, schedule: Q01DX005 (ip), vehicle: saline with Tween-80) 92 % of control; (dose: 200.0 mg/kg/injection, schedule: Q01DX005 (ip), vehicle: saline with Tween-80) 92 % of control.

In the case of `N#CC(C(=O)CCC(=O)C(C#N)c1nc2ccccc2s1)c1nc2ccccc2s1` (configuration not stated), the T/C (dose: 100.0 mg/kg/injection, schedule: Q01DX001 (ip), vehicle: saline with Tween-80) was 89 % of control; the T/C (dose: 200.0 mg/kg/injection, schedule: Q01DX001 (ip), vehicle: saline with Tween-80) is 88 % of control; the T/C (dose: 400.0 mg/kg/injection, schedule: Q01DX001 (ip), vehicle: saline with Tween-80) was 91 % of control.

With `OCCCN1CCCCC1CO` (configuration not stated), the T/C under setting [3] was 116 % of control and the T/C (dose: 200.0 mg/kg/injection, schedule: Q01DX009 (ip), vehicle: saline with Tween-80) is 150 % of control.

In the case of `COC1C(C)OC(O[C@@H]2C[C@@](C)(O)Cc3cc4c(c(O)c32)C(=O)c2c(O)cc3c(c2C4=O)O[C@@H]2O[C@@]3(C)[C@@H](O)[C@H](N(C)C)[C@H]2O)C(OC)C1(C)OC` (some centres not stated), the T/C (dose: 3.12 mg/kg/injection, schedule: Q01DX009 (ip), vehicle: other) was 119 % of control.

Take `CN1CC(C(=O)O)=Nc2c1nc(N)[nH]c2=O`: the T/C was 101 % of control (dose: 6.25 mg/kg/injection, schedule: Q01DX009 (ip), vehicle: saline with Tween-80); 109 % of control under setting [1]; 101 % of control under setting [2].

As for `O=c1c(O)cccn1C1OC(CO)C(O)C1O` (configuration not stated), the T/C reads like this: (dose: 50.0 mg/kg/injection, schedule: Q01DX005 (ip), vehicle: saline) 99 % of control and 97 % of control and 104 % of control; (dose: 100.0 mg/kg/injection, schedule: Q01DX005 (ip), vehicle: saline) 99 % of control and 101 % of control and 117 % of control; (dose: 200.0 mg/kg/injection, schedule: Q01DX005 (ip), vehicle: saline) 104 % of control [middle of 4 runs]; (dose: 400.0 mg/kg/injection, schedule: Q01DX005 (ip), vehicle: saline) 102 % of control and 112 % of control and 87 % of control.

Regarding `CCC1CC(C)C(O)/C=C/C=C/CC(C)OC(=O)CC(O)C(OC)C1OC1CC(C)(O)C(O)C(C)O1` (configuration not stated), the T/C by setting is: (dose: 10.5 mg/kg/injection, schedule: Q01DX005 (ip), vehicle: Klucel (hydroxypropylcellulose) (HPC)) 112 % of control; (dose: 21.0 mg/kg/injection, schedule: Q01DX005 (ip), vehicle: Klucel (hydroxypropylcellulose) (HPC)) 102 % of control; (dose: 42.0 mg/kg/injection, schedule: Q01DX005 (ip), vehicle: Klucel (hydroxypropylcellulose) (HPC)) 105 % of control; (dose: 84.0 mg/kg/injection, schedule: Q01DX005 (ip), vehicle: Klucel (hydroxypropylcellulose) (HPC)) 102 % of control.
